Results published in patent publication US9528090B2, “Differentiation of human embryonic stem cells” (Janssen Biotech, Inc., priority 2010, dated 2016).

How the values were obtained:
[1] = test system: human embryonic stem cells line H1; test: Definitive endoderm differentiation of H1 cells, single cell seeding (GDF8/GSK3B inhibitor, MCDB-131): FACS for CXCR4 and CD9; format: cell-based; details: for % CXCR4 + CD9− / % CXCR4 − CD9+ / % CXCR4 − CD9−: day 4
Experimental: Cells of the human embryonic stem cells line H1 (p40-p52) were seeded as single cells at a density of 100000 cells/cm^2 on MATRIGEL® (1:30 dilution) (BD Biosciences; Cat #356231)-coated dishes in MEF-CM (mouse embryonic fibroblast conditioned media) supplemented with 16 ng/ml of FGF2 (Catalog#100-18B, PeproTech, NJ) and 10 μM of Y27632 (Rock inhibitor, Catalogue#Y0503, Sigma, Mo.). 72 hrs post seeding, cultures were differentiated into definitive endoderm (DE) as follows: • a. […] MCDB-131 medium supplemented with 2% BSA, sodium bicarbonate, Glutamax, and 100 ng/ml GDF-8 for an additional three days. In some of the cultures, the cells were treated with the following concentrations of IGF (Catalogue#AF100, PeproTech, NJ): 0, 1, 10, 50, or 200 ng/ml. As a control, instead of BSA, 0.2% FBS (Catalogue#SH30070.03, Hyclone, UT) was used for day 1 of differentiation, and 2% FBS was used for days 2-4. Some of the FBS treated cultures were also treated with various concentrations of IGF. At day 4, samples were collected for FACS and gene expression analysis using real-time PCR.

[2] = test system: human embryonic stem cells line H1; test: Definitive endoderm differentiation of H1 cells, single cell seeding (GDF8/GSK3B inhibitor): real-time PCR gene expression; format: cell-based
Experimental: (§1) Cells of the human embryonic stem cells line H1 (p40-p52) were seeded as single cells at a density of 100000 cells/cm^2 on MATRIGEL® (1:30 dilution) (BD Biosciences; Cat #356231)-coated dishes in MEF-CM (mouse embryonic fibroblast conditioned media) supplemented with 16 ng/ml of FGF2 (Catalog#100-18B, PeproTech, NJ) and 10 μM of Y27632 (Rock inhibitor, Catalogue#Y0503, Sigma, Mo.). 72 hrs post seeding, cultures were differentiated into definitive endoderm (DE) as follows: • a. MCDB-131 (Catalogue#10372-019, Invitrogen, CA) medium supplemented with 2% fatty acid-free BSA (Catalog#68700, Proliant, IA), 0.0025 g/ml sodium bicarbonate (Catalogue #S3187, Sigma, Mo.), 1× GlutaMax™ (Catalogue #35050-079, Invitrogen, Ca) and 100 ng/ml GDF8 (Catalogue#120-00, PeproTech, NJ) plus 2.5 μM of the GSK3B inhibitor 14-Prop-2-en-1-yl-3,5,7,14,17,23,27-heptaazatetracyclo [19.3.1.1˜2,6˜0.1˜8,12˜]heptacosa-1(25),2(27),3,5,8(26),9,11,21,23-nonaen-16-one for one day, then • b. MCDB-131 medium supplemented with 2% BSA, sodium bicarbonate, Glutamax, and 100 ng/ml GDF-8 for an additional three days.
In some of the cultures, the cells were treated with the following concentrations of IGF (Catalogue#AF100, PeproTech, NJ): 0, 1, 10, 50, or 200 ng/ml. As a control, instead of BSA, 0.2% FBS (Catalogue#SH30070.03, Hyclone, UT) was used for day 1 of differentiation, and 2% FBS was used for days 2-4. Some of the FBS treated cultures were also treated with various concentrations of IGF.
At day 4, samples were collected for FACS and gene expression analysis using real-time PCR.
Cultures treated with medium supplemented with FBS were much more sensitive to the inhibitory effect of IGF. […] These observations was further supported by immuno fluorescence (IF) staining for the DE marker SOX17 (Catalogue #AF 1924, R & D systems, MN) (FIGS. 8-9).

[3] = test system: human embryonic stem cells line H1; test: Definitive endoderm differentiation of H1 cells in FBS medium (GDF8/GSK3B inhibitor) with IGF or insulin: FACS and real-time PCR; format: cell-based; details: in the presence of FBS, 10-100 ng/ml, day 4
Experimental: as §1, with “a. with” for “a.”, “0.2% FBS (Catalogue#SH30070.03, Hyclone, UT),” for “2% fatty acid-free BSA (Catalog#68700, Proliant, IA),”, “14-Prop-2-en-1-yl-3,5,7,14,17,23,27-heptaazatetracyclo[19.3.1.1˜2,6˜0.1˜8,12˜]heptacosa-1(25),2(27),3,5,8(26),9,11,21,23-nonaen-16-one” for “14-Prop-2-en-1-yl-3,5,7,14,17,23,27-heptaazatetracyclo [19.3.1.1˜2,6˜0.1˜8,12˜]heptacosa-1(25),2(27),3,5,8(26),9,11,21,23-nonaen-16-one”, “FBS,” for “2% BSA,”, “GDF8” for “GDF-8”
0.5% FBS was used for day 2 and 2% FBS was used for days 3-4. Besides regular FBS, heat treated FBS (Catalogue#F4135, Sigma, Mo.) and charcoal stripped treated FBS (Catalogue#F6765, Sigma, Mo.) were also tested. Some of the FBS treated cultures were also treated with various concentrations of IGF (10-100 ng/ml) or insulin (10-100 ng/ml).
At day 4, samples were collected for analysis by FACS and real-time PCR.

[4] = test system: ES cells; details: 25 ng/ml of IGF added to 2% FBS, MEF-CM, activin A; cited from earlier work
[5] = IGF 50-200 ng/ml, BSA treated cultures

Substance: IGF
- % CXCR4 + CD9− ([1]; BSA + 1 ng/ml IGF): 92%
- % CXCR4 − CD9+ ([1]; BSA + 1 ng/ml IGF): 0.8%
- % CXCR4 − CD9− ([1]; BSA + 1 ng/ml IGF): 3%
- % CXCR4 + CD9− ([1]; BSA + 10 ng/ml IGF): 90%
- % CXCR4 − CD9+ ([1]; BSA + 10 ng/ml IGF): 1.3%
- % CXCR4 − CD9− ([1]; BSA + 10 ng/ml IGF): 5.3%
- % CXCR4 + CD9− ([1]; BSA + 50 ng/ml IGF): 87%
- % CXCR4 − CD9+ ([1]; BSA + 50 ng/ml IGF): 6%
- % CXCR4 − CD9− ([1]; BSA + 50 ng/ml IGF): 3.5%
- % CXCR4 + CD9− ([1]; BSA + 200 ng/ml IGF): 79%
- % CXCR4 − CD9+ ([1]; BSA + 200 ng/ml IGF): 10%
- % CXCR4 − CD9− ([1]; BSA + 200 ng/ml IGF): 8%
- % CXCR4 + CD9− ([1]; FBS + 1 ng/ml IGF): 89%
- % CXCR4 − CD9+ ([1]; FBS + 1 ng/ml IGF): 3%
- % CXCR4 − CD9− ([1]; FBS + 1 ng/ml IGF): 3.6%
- % CXCR4 + CD9− ([1]; FBS + 10 ng/ml IGF): 87%
- % CXCR4 − CD9+ ([1]; FBS + 10 ng/ml IGF): 6.4%
- % CXCR4 − CD9− ([1]; FBS + 10 ng/ml IGF): 3.3%
- % CXCR4 + CD9− ([1]; FBS + 50 ng/ml IGF): 78%
- % CXCR4 − CD9+ ([1]; FBS + 50 ng/ml IGF): 6.8%
- % CXCR4 − CD9− ([1]; FBS + 50 ng/ml IGF): 13.2%
- % CXCR4 + CD9− ([1]; FBS + 200 ng/ml IGF): 70%
- % CXCR4 − CD9+ ([1]; FBS + 200 ng/ml IGF): 13.4%
- % CXCR4 − CD9− ([1]; FBS + 200 ng/ml IGF): 12.9%
- CXCR4+CD9− cells [1, 5]: drop in expression
- CXCR4−CD9+ fraction [1, 5]: increase in expression
- CXCr4+CD9− fraction ([1]; increasing doses of IGF, FBS treated versus BSA treated cultures): more significant drop
- expression of markers associated with definitive endoderm (FOXA2, SOX17, CER1, CXCR4) ([2]; 1-200 ng/ml of IGF, BSA treated cultures, versus no IGF): did not significantly affect
- expression of the embryonic marker NANOG ([2]; 50-200 ng/ml of IGF): did increase expression
- expression of SOX17, HNF3B and CXCR4 ([2]; FBS supplemented cultures, increasing IGF): decreased with increasing concentration
- expression of the pluripotency marker NANOG [3]: upregulated
- markers associated with definitive endoderm such as SOX17 and CCXR4 [3]: dose dependently down regulated
- decrease of the expression of SOX17 [4]: approximately 70%
